In patent US20200164005A1, “PHARMACEUTICAL COMPOSITIONS OF A BILE ACID DERIVATIVE AND MICROBIOME AND USES THEREOF” (Intercept Pharmaceuticals, Inc., priority 2017, published 2020):

Assays:
[1] = 10 mg/day dose; cited from earlier work
[2] = Calculated small intestinal luminal concentration of OCA; design: species or system human
[3] = tested on: KEGG pathways of the gut microbiome; assay: KEGG pathway differential abundance analysis of stool metagenome; type: in vivo, human; design: key to * (direction of KEGG pathway change): “↑” means the pathway is up-regulated on day 16; “↓” means the pathway is down-regulated on day 16; details: for * (direction of KEGG pathway change): KEGG pathway of the table row, day 16
From the text: HUMAnN2 (Abubucker et al., PLoS Comput. Biol. 8, e1002358 (2012)) was used to calculate gene and pathway abundance from metagenomic sequencing data. Uniref50 (UniProt® Consortium, Nucleic Acids Res. 43, D204 (2015)) was used for gene family definition. MetaCyc (Caspi et al., Nucleic Acids Res. 42, D459 (2014)) and KEGG (Kanehisa and Goto, Nucleic Acids Res. 28, 27 (2000); Kanehisa et al., Nucleic Acids Res. 44, D457 (2016)) were used for pathway analysis. • Gene family identification: Initially, 989251 gene families were identified from the dataset by HUMAnN2. Quantile normalization was implemented. For each sample, the RPK values were added up till 90% percentile of all genes (normalization factor, nf). RPK value of each gene in each sample was then divided by the nf of the sample, and multiplied with the mean of nf of all samples. 683270 uncharacterized genes were removed. Genes undetected in over 90% of samples (101994) were removed. 203987 genes were kept. Due to the large number of genes identified, 25% of the most varying genes were selected for further analysis. The most varying genes were defined by the coefficient variation (cv=sd/mean) of log 2 transformed value. • MetaCyc pathway identification: HUMAnN2 identified 567 MetaCyc pathways from the dataset. Quantile normalization was then performed. For each sample, the abundance values were added up till 90% percentile of all pathways (normalization factor, nf). Each pathway abundance in each sample was divided by the nf of the sample, and then multiplied with the mean of nf for all samples. The low abundance pathways (52), which were not detected on over 90% of all samples, were removed. 515 high quality MetaCyc pathways were kept for further analysis. • KEGG pathway identification: HUMAnN2 identified 160 KEGG pathways from the dataset. Quantile normalization was applied, and low abundance pathways were removed. 66 high quality KEGG pathways were kept for further analysis.
gene abundance˜aov(day*OCAdose+error(subject ID)) • Pathway differential abundance analysis: For each of the identified pathways, repeated measure ANOVA was also performed to study the time effect and OCA dose effect on pathway abundance change.
pathway abundance˜aov(day*OCAdose+error(subject ID)) • FGF19 analysis: The GEE model was applied in order to study the relationship of FGF19 change with the microbiome, gene family, and the pathway abundance change over time. The R function geeglm from R package geepack was used for gee modeling. Both FGF19 level and species/gene/pathway relative abundance were log 2 transformed before applying GEE model.

gut microbiome species = assay: Shotgun metagenomics of stool: relative abundance of gut microbiome species after OCA treatment; type: in vivo, human; details: for OCA Response: abundance change of the bacterial species, subjects treated with 10 mg of OCA
Method: Twenty-four eligible subjects were enrolled and randomized to 1 of 3 treatment groups (5 mg, 10 mg, or 25 mg) in a treatment ratio of 1:1:1. The study comprised single dose and multiple dose phases. The randomized dose administered in the single dose phase was the subject's dose level for the multiple dose phase. A single dose of OCA (5 mg, 10 mg, or 25 mg) was administered on Day 1. On Day 4, the multiple dose phase began at the same dose level (5 mg, 10 mg, or 25 mg), with subjects receiving OCA once daily for 14 days. The last dose was given to subjects on Day 17. Subjects remained at the inpatient trial site from Day 0 until the morning of Day 30, and returned to the study site for collection of a sample on Days 35, 37, 39, and 44.
Stool specimens for microbiota genome testing were collected up to 2 days prior to submitting them on Day 0, on Day 15, 16, or 17 prior to submitting them on the same day, and up to 2 days prior to submitting them on Day 37. One Day 1, pre-dose blood samples were collected, and serial blood samples were obtained from Day 1 to Day 3 following administration on Day 1 (see Table 1). Multiple dose phase started on Day 4 and lasted through Day 17, during which subjects received once daily doses of OCA (5 mg, 10 mg, or 25 mg) and pre-dose blood samples were drawn (see Table 1).
For microbiome analysis, stool samples were collected on day 0, day 15 or 16, and day 37. FGF19 and C4
The bacterial abundance on species level was generated from MetaPhlAn2 (Segata et al., Nat. Methods 9, 811 (2012)). 341 species were identified from the dataset.
The adaptors, human reads contamination, and low quality sequences were removed from the raw sequencing data using software kneaddata. Trimmomatic (Bolger et al., Bioinformatics 30, 2114 (2014)) was invoked by kneaddata for removing adaptor sequence, trimming low quality bases, and removing low quality reads. Bowtie (Langmead and Salzberg, Nat. Methods 9, 357 (2012)) was invoked by kneaddata for human reads detection. • Removing sequencing noise: For each sample, if the abundance of one species was smaller than 0.05% of the maximum abundance of all species in the sample, it was considered as noise, and the abundance of this species in the sample was set as 0. • Imputing missing value (i.e. Os): Because log 2 transformation was needed in further analysis, adjustment factor (e) was added to the abundance matrix, where e equals 50% of the minimum non-zero abundance value of all samples. • Removing low abundance species: A species was removed if the relative abundance was lower than 0.1% in >=95% of samples. 128 species was kept for further analysis.
• Species differential abundance analysis: The time effect of OCA treatment was studied on three OCA dose groups separately using Friedman rank test. The dose effect of OCA treatment was studied on three time point separately, and Kruskal-Wallis test was used. • Gene differential abundance analysis: For each of the most varying genes, repeated-measure ANOVA was performed to study the time effect and OCA dose effect on gene abundance change.
An open label, randomized, single dose and multiple dose trial to assess the pharmacokinetics of obeticholic acid (OCA) in 24 healthy male or female subjects aged 18 to 55 years receiving 5, 10 or 25 mg OCA was conducted. Stool specimens for microbiota genome testing were collected by subjects up to 2 days before Day 0 (T0), […] (T1), and Day 37 (T2). […]

In the case of `CC[C@H]1[C@@H](O)[C@@H]2[C@H](CC[C@]3(C)[C@@H]([C@H](C)CCC(=O)O)CC[C@@H]23)[C@@]2(C)CC[C@@H](O)C[C@@H]12` [OCA, 3α,7α-dihydroxy-6α-ethyl-5β-cholan-24-oic acid], the OCA concentration calculated to be reached in the human small intestine [1] is given as ~40 µM, the “calculated physiologic level that would be encountered in the human small intestine” value [2] is given as “approximately 12 micromolar” and the “* (direction of KEGG pathway change)” value ([3]; Fatty acid biosynthesis) is given as “↓”. The “* (direction of KEGG pathway change)” value ([3]; Purine metabolism) was “↑”, the “number of KEGG pathways differentially abundant over time” value ([3]; of 66, FDR<0.05 for time effect) was 26 and the “OCA dose effect on KEGG pathway abundance” value ([3]; repeated measure ANOVA, FDR<0.05) was “No OCA dose or dose×day interaction was observed”. The “time-dependent effect of OCA on Streptococcus thermophilus abundance in fecal microbiota” value (gut microbiome species; 10 mg OCA group) was “greatest increase”, the “abundances of all Gram-negative bacteria following OCA treatment” value (gut microbiome species; 10 mg OCA, Table 15) was “decreased” and the “numbers of Lactobacillus casei paracasei and Streptococcus thermophilus upon discontinuation of OCA” value (gut microbiome species; OCA 5 mg, 10 mg, 25 mg) was “decreased”. The “abundance of Lactobacillus casei paracasei and Streptococcus thermophilus in stool over time” value (gut microbiome species; OCA 5 mg, 10 mg, 25 mg, Friedman rank test, p<0.05) was “differentially abundant over time in all three OCA dosage groups”, the “OCA Response” value (gut microbiome species; Alistipes_putredinis) was “Decrease” and the “OCA Response” value (gut microbiome species; Lactococcus_lactis) was “Increase”. The “OCA Response” value (gut microbiome species; Subdoligranulum_unclassified) was “Equivocal”, the “low abundance gram positive organisms with the use of OCA” value (gut microbiome species; day 16) was “consistent increase” and the “OCA dose effect on abundance of Bacteroides uniformis and Streptococcus thermophilus” value (gut microbiome species; day 16 and day 37, Kruskal-Wallis test, p<0.05) was “significantly different among dose groups”. For the same molecule, the “low abundance gram positive organisms after OCA was discontinued” value (gut microbiome species; day 37) was “decreased to baseline” and the “abundances of Gram-positive bacterial genera following OCA treatment” value (gut microbiome species; with two exceptions, 10 mg OCA, Table 15) was “increased abundances”.
